# Where two headings read alike, the source gives them in different places.
# Tested on: cancer cell lines
# Test: Standard Cytotoxicity Assay for other cancer cell types (TC50, CellTiter-Glo)
# Assay type: cell-based
# Description: Approximately 24 hours later, test compound was added from serial dilutions prepared in DMSO from DMSO stock solutions.
smiles,measurement,setting,value
"O=C(NCc1cccnc1)Nc1ccc(COc2ccccc2-c2ccccc2)cc1 [Exemplary Compound A, 1-{4-[(biphenyl-2-yloxy)methyl]phenyl}-3-(pyridin-3-ylmethyl)urea]",CC50,"72 h, DB (lymphoma), 3 DAY, read-out: TC50 (the source's name)",3.5 nM
same,CC50,"72 h, DEL cells (lymphoma), 3 day, read-out: Cmpd A 3 day TC50",41 nM
same,CC50,"72 h, MC/CAR cells (myeloma), 3 day, read-out: Cmpd A 3 day TC50",8.2 nM
same,CC50,"72 h, NAMALWA cells (lymphoma), 3 day, read-out: Cmpd A 3 day TC50",0.85 nM
same,CC50,"Calu-6 cells (lung (NSCLC)), 3 day, read-out: Cmpd A 3 day TC50",12 nM
same,CC50,"DU145 cells (prostate), 3 day, read-out: Cmpd A 3 day TC50",3.8 nM
same,CC50,"Daudi cells (lymphoma), 3 day, read-out: Cmpd A 3 day TC50",< 0.8 nM
same,CC50,"Homo sapiens, 22Rv1, 72 h, 22RV1 cells (prostate), 3 day, read-out: Cmpd A 3 day TC50",8.4 nM
same,CC50,"Homo sapiens, A 172, 72 h, A172 (glioma), 3 DAY, read-out: TC50 (the source's name)",1.1 nM
same,CC50,"Homo sapiens, A498, 72 h, A498 cells (kidney), 3 day, read-out: Cmpd A 3 day TC50",43 nM
same,CC50,"Homo sapiens, A2058, 72 h, A2058 cells (melanoma (lymph node metastasis)), 3 day, read-out: Cmpd A 3 day TC50",3.4 nM
same,CC50,"Homo sapiens, ACHN, 72 h, ACHN cells (kidney), 3 day, read-out: Cmpd A 3 day TC50",3.7 nM
same,CC50,"Homo sapiens, BT-20, 72 h, BT-20 cells (breast), 3 day, read-out: Cmpd A 3 day TC50",13 nM
same,CC50,"Homo sapiens, BT-474, 168 h, BT-474 cells (breast), 7 day, read-out: Cmpd A 7 day TC50",1.1 nM
same,CC50,"Homo sapiens, BXPC-3, 72 h, BxPC-3 cells (pancreas), 3 day, read-out: Cmpd A 3 day TC50",11 nM
same,CC50,"Homo sapiens, CAMA-1, 72 h, CAMA-1 cells (breast), 3 day, read-out: Cmpd A 3 day TC50",4.6 nM
same,CC50,"Homo sapiens, CCRF-CEM, 72 h, CCRF-CEM cells (lymphocytic leukemia), 3 day, read-out: Cmpd A 3 day TC50",2 nM
same,CC50,"Homo sapiens, COLO 205, 72 h, COLO205 (colon), 3 DAY, read-out: TC50 (the source's name)",0.5 nM
same,CC50,"Homo sapiens, COLO 205, 168 h, COLO205 (colon), 7 DAY, read-out: TC50 (the source's name)",0.3 nM
same,CC50,"Homo sapiens, COLO 205, 168 h, COLO205 cells (colon), 7 day, read-out: Cmpd A 7 day TC50",0.3 nM
same,CC50,"Homo sapiens, Calu-6, 72 h, Calu-6 cells (lung (NSCLC)), 3 day, read-out: Cmpd A 3 day TC50",11 nM
same,CC50,"Homo sapiens, DBTRG-05MG, 72 h, DBTRG-05MG cells (brain; glioblastoma), 3 day, read-out: Cmpd A 3 day TC50",19 nM
same,CC50,"Homo sapiens, DLD-1, 72 h, DLD-1 cells (colon), 3 day, read-out: Cmpd A 3 day TC50",1.7 nM
same,CC50,"Homo sapiens, DMS-114, 72 h, DMS-114 (SCLC), 3 DAY, read-out: TC50 (the source's name)",0.16 nM
same,CC50,"Homo sapiens, DU-145, 72 h, DU145 (prostate), 3 DAY, read-out: TC50 (the source's name)",3.9 nM
same,CC50,"Homo sapiens, DU-145, 72 h, DU145 cells (prostate), 3 day, read-out: Cmpd A 3 day TC50",3.9 nM
same,CC50,"Homo sapiens, DU-145, 168 h, DU145 (prostate), 7 DAY, read-out: TC50 (the source's name)",2.7 nM
same,CC50,"Homo sapiens, DU-145, 168 h, DU145 cells (prostate), 7 day, read-out: Cmpd A 7 day TC50",3 nM
same,CC50,"Homo sapiens, DU-4475, 72 h, DU4475 (breast), 3 DAY, read-out: TC50 (the source's name)",0.1 nM
same,CC50,"Homo sapiens, DU-4475, 72 h, DU4475 cells (breast), 3 day, read-out: Cmpd A 3 day TC50",0.1 nM
same,CC50,"Homo sapiens, DU-4475, 168 h, DU4475 (breast), 7 DAY, read-out: TC50 (the source's name)",0.1 nM
same,CC50,"Homo sapiens, DU-4475, 168 h, DU4475 cells (breast), 7 day, read-out: Cmpd A 7 day TC50",0.1 nM
same,CC50,"Homo sapiens, Daudi, 72 h, Daudi cells (lymphoma), 3 day, read-out: Cmpd A 3 day TC50",1.4 nM
same,CC50,"Homo sapiens, EKVX, 72 h, EKVX cells (lung (NSCLC)), 3 day, read-out: Cmpd A 3 day TC50",4 nM
same,CC50,"Homo sapiens, EKVX, 168 h, EKVX cells (lung (NSCLC)), 7 day, read-out: Cmpd A 7 day TC50",1 nM
same,CC50,"Homo sapiens, H9, 72 h, H9 cells (lymphoma), 3 day, read-out: Cmpd A 3 day TC50",3.2 nM
same,CC50,"Homo sapiens, HCC827, 72 h, HCC827 (NSCLC), 3 DAY, read-out: TC50 (the source's name)",8 nM
same,CC50,"Homo sapiens, HCC827, 72 h, HCC827 cells (lung (NSCLC)), 3 day, read-out: Cmpd A 3 day TC50",8 nM
same,CC50,"Homo sapiens, HCC827, 168 h, HCC827 (NSCLC), 7 DAY, read-out: TC50 (the source's name)",1.5 nM
same,CC50,"Homo sapiens, HCC827, 168 h, HCC827 cells (lung (NSCLC)), 7 day, read-out: Cmpd A 7 day TC50",1.5 nM
same,CC50,"Homo sapiens, HCC1937, 72 h, HCC1937 cells (breast), 3 day, read-out: Cmpd A 3 day TC50",61 nM
same,CC50,"Homo sapiens, HCC1937, 168 h, HCC1937 cells (breast), 7 day, read-out: Cmpd A 7 day TC50",1.5 nM
same,CC50,"Homo sapiens, HCT-15, 72 h, HCT-15 (colon), 3 DAY, read-out: TC50 (the source's name)",0.7 nM
same,CC50,"Homo sapiens, HCT-15, 168 h, HCT-15 (colon), 7 DAY, read-out: TC50 (the source's name)",1 nM
same,CC50,"Homo sapiens, HCT-15, 168 h, HCT-15 cells (colon), 7 day, read-out: Cmpd A 7 day TC50",1 nM
same,CC50,"Homo sapiens, HCT-116, 72 h, HCT116 (colon), 3 DAY, read-out: TC50 (the source's name)",0.6 nM
same,CC50,"Homo sapiens, HCT-116, 72 h, HCT-116 cells (colon), 3 day, read-out: Cmpd A 3 day TC50",0.2 to 4.4 nM
same,CC50,"Homo sapiens, HCT-116, 168 h, HCT116 (colon), 7 DAY, read-out: TC50 (the source's name)",0.4 nM
same,CC50,"Homo sapiens, HCT-116, 168 h, HCT-116 cells (colon), 7 day, read-out: Cmpd A 7 day TC50",0.4 nM
same,CC50,"Homo sapiens, HL-60, 72 h, HL-60 cells (myelogenous leukemia), 3 day, read-out: Cmpd A 3 day TC50",5.3 nM
same,CC50,"Homo sapiens, HOP-62, 72 h, HOP62 cells (lung (NSCLC)), 3 day, read-out: Cmpd A 3 day TC50",4 nM
same,CC50,"Homo sapiens, HOP-92, 72 h, HOP92 (NSCLC), 3 DAY, read-out: TC50 (the source's name)",17 nM
same,CC50,"Homo sapiens, HOP-92, 72 h, HOP92 cells (lung (NSCLC)), 3 day, read-out: Cmpd A 3 day TC50",17 nM
same,CC50,"Homo sapiens, HOP-92, 168 h, HOP92 (NSCLC), 7 DAY, read-out: TC50 (the source's name)",4.3 nM
same,CC50,"Homo sapiens, HOP-92, 168 h, HOP92 cells (lung (NSCLC)), 7 day, read-out: Cmpd A 7 day TC50",4.3 nM
same,CC50,"Homo sapiens, HOS, 72 h, HOS cells (osteosarcoma), 3 day, read-out: Cmpd A 3 day TC50",< 0.8 nM
same,CC50,"Homo sapiens, HT-29, 72 h, HT29 (colon), 3 DAY, read-out: TC50 (the source's name)",1.4 nM
same,CC50,"Homo sapiens, HT-29, 72 h, HT29 cells (colon), 3 day, read-out: Cmpd A 3 day TC50",1.4 nM
same,CC50,"Homo sapiens, HT-29, 168 h, HT29 (colon), 7 DAY, read-out: TC50 (the source's name)",1.1 nM
same,CC50,"Homo sapiens, HT-29, 168 h, HT29 cells (colon), 7 day, read-out: Cmpd A 7 day TC50",1.1 nM
same,CC50,"Homo sapiens, HT-1080, 72 h, HT1080 (sarcoma), 3 DAY, read-out: TC50 (the source's name)",1 nM
same,CC50,"Homo sapiens, HT-1080, 72 h, HT1080 cells (fibrosarcoma), 3 day, read-out: Cmpd A 3 day TC50",1 nM
same,CC50,"Homo sapiens, HT-1080, 168 h, HT1080 (sarcoma), 7 DAY, read-out: TC50 (the source's name)",0.6 nM
same,CC50,"Homo sapiens, HT-1080, 168 h, HT1080 cells (fibrosarcoma), 7 day, read-out: Cmpd A 7 day TC50",0.6 nM
same,CC50,"Homo sapiens, IGROV-1, 72 h, IGR-OV1 cells (ovary), 3 day, read-out: Cmpd A 3 day TC50",2 nM
same,CC50,"Homo sapiens, JJN-3, 72 h, JJN3 cells (myeloma (plasma cell leukemia)), 3 day, read-out: Cmpd A 3 day TC50",0.9 nM
same,CC50,"Homo sapiens, K562, 72 h, K562 cells (myelogenous leukemia), 3 day, read-out: Cmpd A 3 day TC50",5.7 nM
same,CC50,"Homo sapiens, KARPAS-299, 72 h, KARPAS-299 cells (lymphocytic leukemia), 3 day, read-out: Cmpd A 3 day TC50",20 nM
same,CC50,"Homo sapiens, KINGS-1, 72 h, KINGS-1 cells (brain, anaplastic astrocytoma (glioma)), 3 day, read-out: Cmpd A 3 day TC50",2 nM
same,CC50,"Homo sapiens, KM12, 72 h, KM12 (colon), 3 DAY, read-out: TC50 (the source's name)",0.9 nM
same,CC50,"Homo sapiens, KM12, 72 h, KM12 cells (colon), 3 day, read-out: Cmpd A 3 day TC50",0.9 nM
same,CC50,"Homo sapiens, KM12, 168 h, KM12 (colon), 7 DAY, read-out: TC50 (the source's name)",0.4 nM
same,CC50,"Homo sapiens, KM12, 168 h, KM12 cells (colon), 7 day, read-out: Cmpd A 7 day TC50",0.4 nM
same,CC50,"Homo sapiens, LOX IMVI, 72 h, LOX-IMVI cells (melanoma), 3 day, read-out: Cmpd A 3 day TC50",15 nM
same,CC50,"Homo sapiens, MCF7, 72 h, MCF7 cells (breast), 3 day, read-out: Cmpd A 3 day TC50",2.2 nM
same,CC50,"Homo sapiens, MDA-MB-231, 72 h, MDA-MB-231 (breast), 3 DAY, read-out: TC50 (the source's name)",10 nM
same,CC50,"Homo sapiens, MDA-MB-231, 168 h, MDA-MB-231 (breast), 7 DAY, read-out: TC50 (the source's name)",7.5 nM
same,CC50,"Homo sapiens, MDA-MB-231, 168 h, MDA-MB-231 cells (breast), 7 day, read-out: Cmpd A 7 day TC50",8 nM
same,CC50,"Homo sapiens, MDA-MB-436, 72 h, MDA-MB-436 cells (breast), 3 day, read-out: Cmpd A 3 day TC50",17 nM
same,CC50,"Homo sapiens, MIA PaCa-2, 72 h, MIA PaCa-2 (pancreatic), 3 DAY, read-out: TC50 (the source's name)",1.8 nM
same,CC50,"Homo sapiens, MIA PaCa-2, 72 h, MiaPaCa2 cells (pancreas), 3 day, read-out: Cmpd A 3 day TC50",1.8 nM
same,CC50,"Homo sapiens, MIA PaCa-2, 168 h, MIA PaCa-2 (pancreatic), 7 DAY, read-out: TC50 (the source's name)",0.4 nM
same,CC50,"Homo sapiens, MIA PaCa-2, 168 h, MiaPaCa2 cells (pancreas), 7 day, read-out: Cmpd A 7 day TC50",0.4 nM
same,CC50,"Homo sapiens, MM1.S, 72 h, MM.1S cells (myeloma), 3 day, read-out: Cmpd A 3 day TC50",1.2 nM
same,CC50,"Homo sapiens, Malme-3M, 72 h, MALME-3M cells (melanoma (lung metastasis)), 3 day, read-out: Cmpd A 3 day TC50",2.5 nM
